Data on 11 molecules can be found in US6534502B2, “Substituted oximes and hydrazones as neurokinin antagonists” (Schering Corporation, priority 1998, dated 2003).

Each structure is given as a SMILES string.

One assay has as its target T1, NK2 receptor (Homo sapiens, UniProt P21452).
T1 sequence (P21452 1-398): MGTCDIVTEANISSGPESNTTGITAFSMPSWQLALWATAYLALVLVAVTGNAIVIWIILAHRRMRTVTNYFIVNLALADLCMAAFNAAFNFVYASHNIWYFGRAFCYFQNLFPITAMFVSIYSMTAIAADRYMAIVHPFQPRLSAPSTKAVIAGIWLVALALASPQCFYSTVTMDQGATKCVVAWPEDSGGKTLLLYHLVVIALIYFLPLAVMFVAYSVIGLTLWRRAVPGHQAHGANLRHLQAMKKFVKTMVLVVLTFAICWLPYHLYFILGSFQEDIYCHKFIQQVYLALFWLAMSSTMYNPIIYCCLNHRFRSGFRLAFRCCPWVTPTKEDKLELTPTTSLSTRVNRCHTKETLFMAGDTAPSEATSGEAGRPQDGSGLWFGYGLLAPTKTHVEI
Put plainly: neurokinin receptor binding assay, NK2. An excerpt:
(§1) The in vitro and in vivo activity of the compounds of formula I can be determined by various procedures known in the art, such as a test for their ability to inhibit the activity of the NK1 agonist Substance P, an isolated hamster trachea NK2 assay, a test of the effect of NK1 antagonists on Substance P-induced airway microvascular leakage, measurement of NK2 activity in vivo in guinea pigs, measurement of bronchoconstriction due to NKA, and neurokinin receptor binding assay(s).
(§2) % Inhibition of neurokinin agonist activity is the difference between the percent of maximum specific binding (MSB) and 100%. The percent of MSB is defined by the following equation, wherein “dpm” is disintegrations per minute: [formula]

The next assay has as its target NK1 receptor (Homo sapiens, UniProt P25103). As to the kind of experiment: neurokinin receptor binding assay, NK1.
Source text: as §1, with “assay(s). NK3 activity is determined by following a procedure similar to that described in the literature, e.g., Molecular Pharmacol., 48 (1995), p. 711-716.” for “assay(s).”
as §2

Another assay concerns the target T2, NK3 receptor (Homo sapiens, UniProt P29371).
T2 sequence (P29371 1-465): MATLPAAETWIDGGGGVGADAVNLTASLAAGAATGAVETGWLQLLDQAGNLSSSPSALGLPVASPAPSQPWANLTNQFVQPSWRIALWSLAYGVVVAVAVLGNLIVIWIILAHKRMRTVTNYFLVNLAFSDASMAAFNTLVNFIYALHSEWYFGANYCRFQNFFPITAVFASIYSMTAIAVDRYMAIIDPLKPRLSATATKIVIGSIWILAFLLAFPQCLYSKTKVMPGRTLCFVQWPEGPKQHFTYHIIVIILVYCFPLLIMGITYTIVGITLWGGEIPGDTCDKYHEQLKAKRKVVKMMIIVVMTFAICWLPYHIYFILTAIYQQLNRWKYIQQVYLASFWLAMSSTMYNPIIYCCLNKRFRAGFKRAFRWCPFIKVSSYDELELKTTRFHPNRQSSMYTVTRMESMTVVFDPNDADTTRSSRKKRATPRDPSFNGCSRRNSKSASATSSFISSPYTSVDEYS
As to the kind of experiment: neurokinin receptor binding assay, NK3.
Source text: as §1, with “assay(s). NK3 activity is determined by following a procedure similar to that described in the literature, e.g., Molecular Pharmacol., 48 (1995), p. 711-716.” for “assay(s).”
as §2

NK1 receptor, sequence (P25103 whole entry, species assumed): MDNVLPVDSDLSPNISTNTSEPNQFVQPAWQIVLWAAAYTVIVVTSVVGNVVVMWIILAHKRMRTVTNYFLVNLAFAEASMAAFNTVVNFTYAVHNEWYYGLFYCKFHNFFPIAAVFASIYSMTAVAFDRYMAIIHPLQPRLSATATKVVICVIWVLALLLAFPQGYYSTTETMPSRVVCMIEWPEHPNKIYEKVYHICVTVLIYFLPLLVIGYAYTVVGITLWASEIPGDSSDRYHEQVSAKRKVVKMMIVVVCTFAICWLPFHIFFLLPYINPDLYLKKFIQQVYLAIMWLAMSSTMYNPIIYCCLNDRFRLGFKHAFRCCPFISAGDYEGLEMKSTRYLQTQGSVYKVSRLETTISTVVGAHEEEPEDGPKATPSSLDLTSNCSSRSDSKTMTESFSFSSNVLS

Broadly, the Ki is a measure of affinity in units of concentration, obtained from inhibition or displacement. Lower therefore signals a stronger hold on the target. With `CON=C(CN(C)C(=O)c1cc(Cl)cc(Cl)c1)C(CCN1CCC(N2C(=O)c3ccccc3C2C)CC1)c1ccc(Cl)c(Cl)c1` (stereo not shown) [Example 5B], the figures for the Ki at NK2 receptor and at NK1 receptor were 2.8 nM and 0.9 nM, respectively.
Regarding `CO/N=C(\CN(C)C(=O)c1cc(Cl)cc(Cl)c1)[C@H](CCN1CCC(N2CCCN(CC(=O)N3CCOCC3)C2=O)CC1)c1ccc(Cl)c(Cl)c1` [Example 6E], the Ki on NK3 receptor amounted to 1.5 nM; at NK2 receptor it was 1 nM; on NK1 receptor, 1 nM.
For the molecule `CON=C(CN(C)C(=O)c1cc(Cl)cc(Cl)c1)C(CCN1CCC(N2CCCN(C(C)(C)C(=O)O)C2=O)CC1)c1ccc(Cl)c(Cl)c1` (stereo not shown) [Example 6M], the Ki at NK3 receptor was determined as 0.3 nM; on NK2 receptor it was 0.5 nM; at NK1 receptor it was 0.9 nM.
As to `CO/N=C(\CN(C)C(=O)c1cc(Cl)cc(Cl)c1)[C@H](CCN1CCC(N2CCCN(Cc3nn[nH]n3)C2=O)CC1)c1ccc(Cl)c(Cl)c1` [Example 6S], the Ki on NK3 receptor worked out at 2.1 nM.
For `CO/N=C(\CN(C)C(=O)c1cc(Cl)cc(Cl)c1)[C@H](CCN1CCC(N2CCCN(Cc3ccc[n+]([O-])c3)C2=O)CC1)c1ccc(Cl)c(Cl)c1` [Example 6Y], the Ki on NK3 receptor, at NK2 receptor and at NK1 receptor was 0.4 nM throughout.
`CO/N=C(\CN(C)C(=O)c1ccc2c(c1)OCO2)[C@H](CCN1CCC(N2CCCNC2=O)CC1)c1ccc(Cl)c(Cl)c1` [Example 7F]: the Ki at NK3 receptor came to 3.8 nM; at NK2 receptor, 0.4 nM; on NK1 receptor, 1.8 nM.
Taken in the same sequence, the figures for `CO/N=C(\CN(C)C(=O)c1cc(Cl)cc(Cl)c1)C(CCN1CCC(N2CCNCC2=O)CC1)c1ccc(Cl)c(Cl)c1` (stereo not shown) [Example 8A] were 1.2 nM, 0.7 nM and 1.1 nM.
The corresponding values for `CO/N=C(\CN(C)C(=O)c1cc(Cl)cc(Cl)c1)C(CCN1CCC(N2CC(=O)N[C@@H](CC(=O)O)C2=O)CC1)c1ccc(Cl)c(Cl)c1` (stereo partly shown) [Example 10B] are 34.6 nM, 28.9 nM and 2.9 nM.
Taken in the same sequence, the figures for `CO/N=C(\CN(C)C(=O)c1cc(Cl)cc(Cl)c1)[C@H](CCN1CCC(N2CC(=O)N[C@H](CC(N)=O)C2=O)CC1)c1ccc(Cl)c(Cl)c1` [Example 11A] were 1.9 nM, 1 nM and 0.8 nM.
On to `CN(C/C(=N\OC/C(N)=N/O)C(CCN1CCC(N2CCCN(C/C(N)=N/O)C2=O)CC1)c1ccc(Cl)c(Cl)c1)C(=O)c1cc(Cl)cc(Cl)c1` (stereo not shown) [Example 16], for which the Ki on NK3 receptor is 0.7 nM; on NK2 receptor, 0.4 nM; on NK1 receptor it was 0.4 nM.
At NK3 receptor, `CO/N=C(\CN(C)C(=O)c1cc(Cl)cc(Cl)c1)[C@H](CCN1CCC(n2c(=O)[nH]c3ccccc32)CC1)c1ccc(Cl)c(Cl)c1` [Example 18A] returned a Ki of 9.8 nM.
